# Measurements as given in ChEMBL document CHEMBL5338746, “New Generation of sGC Stimulators: Discovery of Imidazo[1,2-a]pyridine Carboxamide BAY 1165747 (BAY-747), a Long-Acting Soluble Guanylate Cyclase Stimulator for the Treatment of Resistant Hypertension” (J Med Chem, 2023).
# pIC50: −log10 of the molar value. The source made the active and inactive calls. The rule behind the calls is not given here.
# How the values were obtained:
# [1] = biological target: T1, Soluble guanylate cyclase alpha1/beta1 complex (Rattus norvegicus) (UniProt P19686+P20595); assay: Stimulation of recombinant rat sGC alpha1/beta1 expressed in CHO cells assessed as formation of cGMP from GTP by measuring concentration for >3-fold increase in the basal luminescence value by luminescence based analysis; format: cell-based; details: filed as activator
# [2] = Metabolic stability in rat hepatocytes assessed as clearance measured upto 90 mins by LC-MS/MS analysis; format: ADME, cell-based, Hepatocyte
# [3] = Fraction unbound in po or iv dosed Wistar rat; format: ADME, organism-based; details: in vivo
# [4] = Apparent permeability across apical to basolateral side in human Caco-2 cells incubated for 2 hrs by LC-MS/MS analysis; format: ADME, cell-based
# [5] = Efflux ratio of apparent permeability basolateral to apical side over apical to basolateral side in human Caco-2 cells incubated for 2 hrs by LC-MS/MS analysis; format: ADME, cell-based
# [6] = Blood clearance in Wistar rat at 0.3 mg/kg, iv administered as infusion incubated for 20 mins by HR LC-MS/MS analysis; format: ADME, organism-based; details: whole blood
# [7] = Volume of distribution at steady state in Wistar rat at 0.3 mg/kg, iv administered as infusion by LC-MS/MS analysis; format: ADME, organism-based; details: in vivo, read-out: Vdss
# [8] = Half life in Wistar rat at 0.3 mg/kg, iv administered as infusion by LC-MS/MS analysis; format: ADME, organism-based; details: in vivo
# [9] = Oral bioavailability in Wistar rat at 1 mg/kg by LC-MS/MS analysis; format: ADME, organism-based; details: in vivo
# [10] = Solubility of compound in PBS at pH 6.5 measured for 24 hrs by LC-MS/MS analysis; format: physicochemical
# [11] = system: Rattus norvegicus; assay: Antihypertensive activity against L-NAME treated renin transgenic Wistar rat cardiovascular disease model assessed as body weight gain at 0.3 mg/kg administered via oral gavage once daily for 21 days; format: functional, organism-based; details: time 21.0 day
# [12] = system: Rattus norvegicus; assay: Antihypertensive activity against L-NAME treated renin transgenic Wistar rat cardiovascular disease model assessed as reduction in mortality rate at 0.3 mg/kg administered via oral gavage once daily for 21 days; format: functional, organism-based; details: time 21.0 day
# [13] = system: Rattus norvegicus; assay: Antihypertensive activity against L-NAME treated renin transgenic Wistar rat cardiovascular disease model assessed as reduction in mortality rate at 3 mg/kg administered via oral gavage once daily for 21 days; format: functional, organism-based; details: time 21.0 day
# [14] = system: Rattus norvegicus; assay: Anti-hypertensive activity against L-NAME treated renin transgenic Wistar rat cardiovascular disease model assessed as increase in plasma cGMP level at 0.3 mg/kg administered once daily via oral gavage upto 21 days (reference value: 572+/-350 pmol/mL); format: functional; details: time <= 21 day
# [15] = system: Rattus norvegicus; assay: Anti-hypertensive activity against L-NAME treated renin transgenic Wistar rat cardiovascular disease model assessed as increase in plasma cGMP level at 3 mg/kg administered once daily via oral gavage upto 21 days (reference value: 572+/-350 pmol/mL); format: functional; details: time <= 21 day
# [16] = system: Rattus norvegicus; assay: Anti-hypertensive activity against L-NAME treated renin transgenic Wistar rat cardiovascular disease model assessed as change in heart to body weight at 0.3 mg/kg administered once daily via oral gavage upto 21 days (reference value: 4.64+/-0.3 g/Kg); format: functional; details: time <= 21 day
# [17] = system: Rattus norvegicus; assay: Anti-hypertensive activity against L-NAME treated renin transgenic Wistar rat cardiovascular disease model assessed as change in heart to body weight at 3 mg/kg administered once daily via oral gavage upto 21 days (reference value: 4.64+/-0.3 g/Kg); format: functional; details: time <= 21 day
# [18] = system: Rattus norvegicus; assay: Anti-hypertensive activity against L-NAME treated renin transgenic Wistar rat cardiovascular disease model assessed as reduction in plasma BNP level at 0.3 mg/kg administered once daily via oral gavage upto 21 days (reference value: 403+/-325 pg/ml); format: functional; details: time <= 21 day
# [19] = system: Rattus norvegicus; assay: Anti-hypertensive activity against L-NAME treated renin transgenic Wistar rat cardiovascular disease model assessed as reduction in plasma BNP level at 3 mg/kg administered once daily via oral gavage upto 21 days (reference value: 403+/-325 pg/ml); format: functional; details: time <= 21 day
# [20] = system: Rattus norvegicus; assay: Anti-hypertensive activity against L-NAME treated renin transgenic Wistar rat cardiovascular disease model assessed as change in kidney to body weight at 0.3 mg/kg administered once daily via oral gavage upto 21 days (reference value: 3.79 +/- 0.1 g/kg); format: functional; details: time <= 21 day
# [21] = system: Rattus norvegicus; assay: Anti-hypertensive activity against L-NAME treated renin transgenic Wistar rat cardiovascular disease model assessed as change in kidney to body weight at 3 mg/kg administered once daily via oral gavage upto 21 days (reference value: 3.79 +/- 0.1 g/kg); format: functional; details: time <= 21 day
# [22] = system: Rattus norvegicus; assay: Anti-hypertensive activity against L-NAME treated renin transgenic Wistar rat cardiovascular disease model assessed as increase in survival at 0.3 mg/kg administered once daily via oral gavage upto 21 days (reference value: 21%); format: functional; details: time <= 21 day
# [23] = system: Rattus norvegicus; assay: Anti-hypertensive activity against L-NAME treated renin transgenic Wistar rat cardiovascular disease model assessed as increase in survival at 3 mg/kg administered once daily via oral gavage upto 21 days (reference value: 21%); format: functional; details: time <= 21 day
# [24] = system: Rattus norvegicus; assay: Antihypertensive activity against L-NAME treated renin transgenic Wistar rat cardiovascular disease model assessed as reduction in blood pressure at 3 mg/kg administered via oral gavage once daily for 28 days; format: functional, organism-based; details: time 28.0 day
# [25] = system: Rattus norvegicus; assay: Antihypertensive activity against L-NAME treated renin transgenic Wistar rat cardiovascular disease model assessed as reduction in blood pressure at 0.3 mg/kg administered via oral gavage once daily for 28 days; format: functional, organism-based; details: time 28.0 day
# [26] = system: Rattus norvegicus; assay: Antihypertensive activity against L-NAME treated renin transgenic Wistar rat cardiovascular disease model assessed as body weight gain at 3 mg/kg administered via oral gavage once daily for 21 days; format: functional, organism-based; details: time 21.0 day
# [27] = system: Aorta; assay: Vasorelaxant activity in New Zealand White rabbits aortic rings assessed as reduction in phenylephrine-induced contraction measured after 30 mins; format: functional, tissue-based; details: Oryctolagus cuniculus, 0.5 h
# [28] = system: Rattus norvegicus; assay: Antihypertensive activity in spontaneous hypertensive Wistar rat assessed as decrease in systolic blood pressure iv administered as bolus injection measured for 21 days by tail-cuff method; format: functional, organism-based; details: dose 0.3-3 mg/kg, time 21.0 day
# [29] = system: Rattus norvegicus; assay: Antihypertensive activity in spontaneous hypertensive Wistar rat assessed as decrease in systolic blood pressure at 0.3 mg/kg, iv administered as bolus injection measured for 21 days by tail-cuff method; format: functional; details: time 21 day
# [30] = system: Rattus norvegicus; assay: Antihypertensive activity in spontaneous hypertensive Wistar rat assessed as decrease in systolic blood pressure at 0.003 mg/kg, iv administered as bolus injection measured for 21 days by tail-cuff method (reference value: -12 mmHg); format: functional; details: time 21 day
# [31] = system: Rattus norvegicus; assay: Antihypertensive activity in spontaneous hypertensive Wistar rat assessed as decrease in systolic blood pressure at 0.01 mg/kg, iv administered as bolus injection measured for 21 days by tail-cuff method (reference value: -12 mmHg); format: functional; details: time 21 day
# [32] = system: Rattus norvegicus; assay: Antihypertensive activity in spontaneous hypertensive Wistar rat assessed as decrease in systolic blood pressure at 0.03 mg/kg, iv administered as bolus injection measured for 21 days by tail-cuff method (reference value: -12 mmHg); format: functional; details: time 21 day
# [33] = system: Rattus norvegicus; assay: Antihypertensive activity in spontaneous hypertensive Wistar rat assessed as decrease in systolic blood pressure at 0.1 mg/kg, iv administered as bolus injection measured for 21 days by tail-cuff method (reference value: -12 mmHg); format: functional; details: time 21 day
# [34] = system: Rattus norvegicus; assay: Antihypertensive activity in spontaneous hypertensive Wistar rat assessed as decrease in systolic blood pressure at 0.3 mg/kg, iv administered as bolus injection measured for 21 days by tail-cuff method (reference value: -12 mmHg); format: functional; details: time 21 day
# [35] = system: Rattus norvegicus; assay: Antihypertensive activity in spontaneous hypertensive Wistar rat model assessed as reduction in blood pressure po administered bolus injection by radiotelemetry analysis; format: functional, organism-based; details: dose 0.3 mg/kg
# [36] = system: Rattus norvegicus; assay: Antihypertensive activity in spontaneous hypertensive Wistar rat model assessed as reduction in blood pressure at 0.3 to 3.0 mg/kg, po measured after 2 hrs by radiotelemetry analysis; format: functional; parameters: scale not given: the % may be the effect or the level left; details: dose 0.3-3 mg/kg
# [37] = system: Rattus norvegicus; assay: Antihypertensive activity in spontaneous hypertensive Wistar rat model assessed as reduction in blood pressure at 0.3 mg/kg, po measured after 24 hrs by radiotelemetry analysis; format: functional, organism-based
# [38] = system: Rattus norvegicus; assay: Antihypertensive activity in spontaneous hypertensive Wistar rat model assessed as reduction in blood pressure at 1 mg/kg, po measured after 24 hrs by radiotelemetry analysis; format: functional, organism-based
# [39] = biological target: T1, Soluble guanylate cyclase alpha1/beta1 complex (Rattus norvegicus); assay: Stimulation of recombinant rat sGC alpha1/beta1 expressed in CHO cells assessed as formation of cGMP from GTP in presence of NO donor SNAP by measuring basal luminescence value by luminescence based analysis; format: cell-based; details: filed as activator, dose 300.0 nM
# [40] = system: CHO; assay: Stimulation of recombinant rat sGC alpha1/beta1 expressed in CHO cells assessed as formation of cGMP from GTP in presence of […] ODQ by measuring basal luminescence value by luminescence based analysis; format: cell-based; details: dose 300.0 nM, time 3.0 hrs
smiles,measurement,setting,value
CCCC[C@H](CO)NC(=O)c1c(C)nc2c(OCc3c(F)cccc3F)cc(F)cn12,MEC,[1],0.03 µM
same,CLhep predicted,[2],51.7 mL/min/kg
CCCC[C@H](CO)NC(=O)c1c(C)nc2c(OCc3c(F)cccc3F)cccn12,MEC,[1],0.05 µM
same,CLhep predicted,[2],33.3 mL/min/kg
same,fraction unbound,[3],0.049
same,Papp A→B at 2 h,[4],41.3 ×10⁻⁶ cm/s
same,efflux ratio at 2 h,[5],0.6
same,clearance at […],[6],26.7 mL/min/kg
same,Vd,[7],0.9 L/kg
same,half-life,[8],48 min
same,bioavailability,[9],65%
same,solubility at 24 h,[10],3 µg/mL
Cc1nc2c(OCC3CCC3)cccn2c1C(=O)NCCOCCO,MEC,[1],3 µM
same,CLhep predicted,[2],25 mL/min/kg
CCCC[C@H](CO)NC(=O)c1cnc2c(OCc3c(F)cccc3F)cccn12,MEC,[1],0.3 µM
same,CLhep predicted,[2],13.3 mL/min/kg
CC[C@](C)(N)CNC(=O)c1c(C)nc2c(OCc3c(F)cccc3F)cc(C)cn12,Activity,[11],Active
same,Activity,[12],Active
same,Activity,[13],Active
same,Activity,[14],1018 pmol/mL
same,Activity,[15],2798 pmol/mL
same,Activity,[16],4.03 g/kg
same,Activity,[17],3.64 g/kg
same,Activity,[18],284 pg/mL
same,Activity,[19],97 pg/mL
same,Activity,[20],3.72 g/kg
same,Activity,[21],3.72 g/kg
same,Activity,[22],44%
same,Activity,[23],78%
same,Activity,[24],Active
same,Activity,[25],inactive
same,Activity,[26],Active
same,pIC50,[27],7.57
same,Activity,[28],Dose-Dependent Effect
same,Activity,[29],-86 mmHg
same,Activity,[30],-19 mmHg
same,Activity,[31],-22 mmHg
same,Activity,[32],-49 mmHg
same,Activity,[33],-70 mmHg
same,Activity,[34],-86 mmHg
same,Activity,[35],Dose-Dependent Effect
same,Activity,[36],10%
same,Activity,[37],Active
same,Activity,[38],Active
Cc1nc2c(OCC3CCC3)cccn2c1C(=O)NCc1ccc(Cl)cc1,MEC,[1],1 µM
same,CLhep predicted,[2],60 mL/min/kg
same,Drug metabolism,[39],Active
same,Drug metabolism,[40],inactive
same,pIC50,[27],6.08
CCCC[C@H](CO)NC(=O)c1c(C)nc2c(OCc3c(C)cccc3C)cccn12,MEC,[1],3 µM
same,CLhep predicted,[2],43.3 mL/min/kg
CCCC[C@H](CO)NC(=O)c1c(C)nc2c(OCc3ccccc3)cccn12,MEC,[1],1 µM
same,CLhep predicted,[2],38.3 mL/min/kg
